# According to US10681909B2, “Herbicidal triazoles” (FMC Corporation, priority 2014, dated 2020):
# Assays:
# [1] = test system: waterhemp; assay: Test C postemergence; type: in vivo, Amaranthus rudis
# Excerpt: (§1) Seeds of plant species selected from blackgrass (Alopecurus myosuroides), ryegrass, Italian (Italian ryegrass, Lolium multiflorum), wheat (winter wheat, Triticum aestivum), galium (catchweed bedstraw, Galium aparine), corn (Zea mays), crabgrass, large (large crabgrass, Digitaria sanguinalis), foxtail, giant, (giant foxtail, Setaria faberii), johnsongrass (Sorghum halepense), lambsquarters (Chenopodium album), morningglory (Ipomoea coccinea), nutsedge, yellow (yellow nutsedge, Cyperus esculentus), pigweed (Amaranthus retroflexus), ragweed (common ragweed, Ambrosia elatior), soybean (Glycine max), barnyardgrass (Echinochloa crus-galli), oilseed rape (Brassica napus), waterhemp (common waterhemp, Amaranthus rudis), and velvetleaf (Abutilon theophrasti) were planted into a blend of loam soil and sand and treated preemergence with test chemicals formulated in a non-phytotoxic solvent mixture which included a surfactant. At the same time, plants selected from these crop and weed species and also chickweed (common chickweed, Stellaria media), oat, wild (wild oat, Avena fatua), and kochia (Kochia scoparia), were planted in pots containing Sunshine Redi-Earth® planting medium comprising spaghnum peat moss, vermiculite, starter nutrients and dolomitic limestone and treated with postemergence applications of test chemicals formulated in the same manner. Plants ranged in height from 2 to 18 cm (1- to 4-leaf stage) for postemergence treatments. […] A dash (-) response means no test result.
# [2] = test system: oat, wild; assay: Test C postemergence; type: in vivo, Avena fatua
# Excerpt: as §1
# [3] = test system: ryegrass, Italian; assay: Test C postemergence; type: in vivo, Lolium multiflorum
# Excerpt: as §1
# [4] = test system: nutsedge, yellow; assay: Test C postemergence; type: in vivo, Cyperus esculentus
# Excerpt: as §1
# [5] = test system: morningglory; assay: Test C postemergence; type: in vivo, Ipomoea coccinea
# Excerpt: as §1
# [6] = test system: kochia; assay: Test C postemergence; type: in vivo, Kochia scoparia
# Excerpt: as §1
# [7] = test system: lambsquarters; assay: Test C postemergence; type: in vivo, Chenopodium album
# Excerpt: as §1
# [8] = test system: blackgrass; assay: Test C postemergence; type: in vivo, Alopecurus myosuroides
# Excerpt: as §1
# [9] = test system: corn; assay: Test A postemergence; type: in vivo, Zea mays; details: Zea mays, post-emergence, 240 h, 0 to 100 scale (0 no effect, 100 complete control), approx. 10 d; for Corn plant response rating (crop injury, 0 = no effect, 100 = complete kill) at 125 g/ha: 125 g ai/ha
# In short: (§2)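 Loam/sand soil mix; compound in non-phytotoxic solvent + surfactant. Pre: directed soil spray right after planting seed. Post: potted plants 2–10 cm, 1–2 leaf stage, sprayed with same formulation.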
# [10] = test system: chickweed; assay: Test C postemergence; type: in vivo, Stellaria media
# Excerpt: as §1
# [11] = test system: wheat (winter wheat); assay: Test C postemergence; type: in vivo, Triticum aestivum
# Excerpt: as §1
# [12] = test system: barnyardgrass; assay: Test A postemergence; type: in vivo, Echinochloa crus-galli; details: Echinochloa crus-galli, post-emergence, 240 h, 0 to 100 scale (0 no effect, 100 complete control), approx. 10 d, read-out: Plant response rating, Barnyardgrass; for pest or weed control at 125 g/ha: 125 g ai/ha
# In short: as §2
# [13] = test system: pigweed; assay: Test C postemergence; type: in vivo, Amaranthus retroflexus
# Excerpt: as §1
# [14] = test system: wheat; assay: Test A postemergence; type: in vivo, Triticum aestivum; details: Triticum aestivum, post-emergence, 240 h, 0 to 100 scale (0 no effect, 100 complete control), approx. 10 d, read-out: Plant response rating, Wheat; for plant injury at 125 g/ha: 125 g ai/ha
# In short: as §2
# [15] = test system: foxtail, giant; assay: Test C postemergence; type: in vivo, Setaria faberii
# Excerpt: as §1
# [16] = test system: oilseed rape; assay: Test C postemergence; type: in vivo, Brassica napus
# Excerpt: as §1
# [17] = test system: barnyardgrass; assay: Test A preemergence; type: in vivo, Echinochloa crus-galli; details: Echinochloa crus-galli, pre-emergence, 240 h, 0 to 100 scale (0 no effect, 100 complete control), read-out: Plant response rating, Barnyardgrass; for pest or weed control at 125 g/ha: 125 g ai/ha
# In short: as §2
structure (smiles),measurement,setting,value
"CCOc1nc(-c2ccc(C(F)(F)F)cc2)nn1Cc1ccnc(C(F)(F)F)c1 [Compound 35, 4-[[5-ethoxy-3-[4-(trifluoromethyl)phenyl]-1H-1,2,4-triazole-1-yl]methyl]-2-(trifluoromethyl)pyridine]",Plant response rating (scale of 0 to 100 where 0 is no effect and 100 is complete control),[1]; 31 g ai/ha,98
same,Plant response rating (scale of 0 to 100 where 0 is no effect and 100 is complete control),[1]; 62 g ai/ha,98
same,Plant response rating (scale of 0 to 100 where 0 is no effect and 100 is complete control),[1]; 125 g ai/ha,95
same,Plant response rating (scale of 0 to 100 where 0 is no effect and 100 is complete control),[1]; 250 g ai/ha,98
same,Plant response rating (scale of 0 to 100 where 0 is no effect and 100 is complete control),[2]; 31 g ai/ha,45
same,Plant response rating (scale of 0 to 100 where 0 is no effect and 100 is complete control),[2]; 62 g ai/ha,50
same,Plant response rating (scale of 0 to 100 where 0 is no effect and 100 is complete control),[2]; 125 g ai/ha,85
same,Plant response rating (scale of 0 to 100 where 0 is no effect and 100 is complete control),[2]; 250 g ai/ha,90
same,Plant response rating (scale of 0 to 100 where 0 is no effect and 100 is complete control),[3]; 31 g ai/ha,30
same,Plant response rating (scale of 0 to 100 where 0 is no effect and 100 is complete control),[3]; 62 g ai/ha,55
same,Plant response rating (scale of 0 to 100 where 0 is no effect and 100 is complete control),[3]; 125 g ai/ha,60
same,Plant response rating (scale of 0 to 100 where 0 is no effect and 100 is complete control),[3]; 250 g ai/ha,80
same,Plant response rating (scale of 0 to 100 where 0 is no effect and 100 is complete control),[4]; 31 g ai/ha,20
same,Plant response rating (scale of 0 to 100 where 0 is no effect and 100 is complete control),[4]; 62 g ai/ha,10
same,Plant response rating (scale of 0 to 100 where 0 is no effect and 100 is complete control),[4]; 125 g ai/ha,30
same,Plant response rating (scale of 0 to 100 where 0 is no effect and 100 is complete control),[4]; 250 g ai/ha,35
same,Plant response rating (scale of 0 to 100 where 0 is no effect and 100 is complete control),[5]; 31 g ai/ha,70
same,Plant response rating (scale of 0 to 100 where 0 is no effect and 100 is complete control),[5]; 62 g ai/ha,95
same,Plant response rating (scale of 0 to 100 where 0 is no effect and 100 is complete control),[5]; 125 g ai/ha,85
same,Plant response rating (scale of 0 to 100 where 0 is no effect and 100 is complete control),[5]; 250 g ai/ha,95
same,Plant response rating (scale of 0 to 100 where 0 is no effect and 100 is complete control),[6]; 31 g ai/ha,90
same,Plant response rating (scale of 0 to 100 where 0 is no effect and 100 is complete control),[6]; 62 g ai/ha,90
same,Plant response rating (scale of 0 to 100 where 0 is no effect and 100 is complete control),[6]; 125 g ai/ha,90
same,Plant response rating (scale of 0 to 100 where 0 is no effect and 100 is complete control),[6]; 250 g ai/ha,90
same,Plant response rating (scale of 0 to 100 where 0 is no effect and 100 is complete control),[7]; 31 g ai/ha,98
same,Plant response rating (scale of 0 to 100 where 0 is no effect and 100 is complete control),[7]; 62 g ai/ha,95
same,Plant response rating (scale of 0 to 100 where 0 is no effect and 100 is complete control),[7]; 125 g ai/ha,98
same,Plant response rating (scale of 0 to 100 where 0 is no effect and 100 is complete control),[7]; 250 g ai/ha,100
same,Plant response rating (scale of 0 to 100 where 0 is no effect and 100 is complete control),[8]; 31 g ai/ha,65
same,Plant response rating (scale of 0 to 100 where 0 is no effect and 100 is complete control),[8]; 62 g ai/ha,70
same,Plant response rating (scale of 0 to 100 where 0 is no effect and 100 is complete control),[8]; 125 g ai/ha,85
same,Plant response rating (scale of 0 to 100 where 0 is no effect and 100 is complete control),[8]; 250 g ai/ha,85
same,"Corn plant response rating (crop injury, 0 = no effect, 100 = complete kill) at 31 g/ha",[9]; 31 g ai/ha,40%
same,"Corn plant response rating (crop injury, 0 = no effect, 100 = complete kill) at 125 g/ha",[9],80%
same,Plant response rating (scale of 0 to 100 where 0 is no effect and 100 is complete control),[10]; 31 g ai/ha,100
same,Plant response rating (scale of 0 to 100 where 0 is no effect and 100 is complete control),[10]; 62 g ai/ha,100
same,Plant response rating (scale of 0 to 100 where 0 is no effect and 100 is complete control),[10]; 125 g ai/ha,100
same,Plant response rating (scale of 0 to 100 where 0 is no effect and 100 is complete control),[10]; 250 g ai/ha,100
same,Plant response rating (scale of 0 to 100 where 0 is no effect and 100 is complete control),[11]; 31 g ai/ha,15
same,Plant response rating (scale of 0 to 100 where 0 is no effect and 100 is complete control),[11]; 62 g ai/ha,20
same,Plant response rating (scale of 0 to 100 where 0 is no effect and 100 is complete control),[11]; 125 g ai/ha,35
same,Plant response rating (scale of 0 to 100 where 0 is no effect and 100 is complete control),[11]; 250 g ai/ha,30
same,pest or weed control at 31 g/ha,[12]; 31 g ai/ha,80%
same,pest or weed control at 125 g/ha,[12],90%
same,Plant response rating (scale of 0 to 100 where 0 is no effect and 100 is complete control),[13]; 31 g ai/ha,98
same,Plant response rating (scale of 0 to 100 where 0 is no effect and 100 is complete control),[13]; 62 g ai/ha,98
same,Plant response rating (scale of 0 to 100 where 0 is no effect and 100 is complete control),[13]; 125 g ai/ha,100
same,Plant response rating (scale of 0 to 100 where 0 is no effect and 100 is complete control),[13]; 250 g ai/ha,100
same,plant injury at 31 g/ha,[14]; 31 g ai/ha,40%
same,plant injury at 125 g/ha,[14],70%
same,Plant response rating (scale of 0 to 100 where 0 is no effect and 100 is complete control),[15]; 31 g ai/ha,25
same,Plant response rating (scale of 0 to 100 where 0 is no effect and 100 is complete control),[15]; 62 g ai/ha,40
same,Plant response rating (scale of 0 to 100 where 0 is no effect and 100 is complete control),[15]; 125 g ai/ha,70
same,Plant response rating (scale of 0 to 100 where 0 is no effect and 100 is complete control),[15]; 250 g ai/ha,85
same,Plant response rating (scale of 0 to 100 where 0 is no effect and 100 is complete control),"[16]; Oilsee Rape, 250 g ai/ha",98
same,Plant response rating (scale of 0 to 100 where 0 is no effect and 100 is complete control),"[16]; Oilseed Rape, 31 g ai/ha",80
same,Plant response rating (scale of 0 to 100 where 0 is no effect and 100 is complete control),"[16]; Oilseed Rape, 62 g ai/ha",90
same,Plant response rating (scale of 0 to 100 where 0 is no effect and 100 is complete control),"[16]; Oilseed Rape, 125 g ai/ha",80
same,pest or weed control at 31 g/ha,[17]; 31 g ai/ha,80%
same,pest or weed control at 125 g/ha,[17],100%
"Cn1nc(-c2ccc(F)cc2)nc1Oc1cccc(C(F)(F)F)c1 [Compound 5, 3-(4-fluorophenyl)-1-methyl-5-[3-(trifluoromethyl)phenoxy]-1H-1,2,4-triazole]","Corn plant response rating (crop injury, 0 = no effect, 100 = complete kill) at 125 g/ha",[9],10%
same,"Corn plant response rating (crop injury, 0 = no effect, 100 = complete kill) at 500 g/ha",[9]; 500 g ai/ha,20%
same,pest or weed control at 125 g/ha,[12],10%
same,pest or weed control at 500 g/ha,[12]; 500 g ai/ha,30%
same,plant injury at 125 g/ha,[14],0%
same,plant injury at 500 g/ha,[14]; 500 g ai/ha,10%
same,pest or weed control at 125 g/ha,[17],0%
same,pest or weed control at 500 g/ha,"[17]; 500 g ai/ha, approx. 10 d",20%
